Results taken from patent US20140065119A1, “METHODS AND COMPOSITIONS COMPRISING CYCLIC ANALOGUES OF HISTATIN 5 FOR TREATING WOUNDS” (THE UNIVERSITY OF WESTERN ONTARIO, priority 2010, published 2014).
Positions of bridges follow the written chain, without caps; N, C: chain ends. Residues, ends and D or L forms follow the SMILES beside them.

How the values were obtained:
[1] = Tolerability in adult rats, intra-venous injection; type: in vivo
Protocol: (§1) In addition, mice were able to withstand a concentration of 15 mg/kg of DB2121 when injected via an intra-peritoneal route. When injected into adult rats, a concentration of up to and including 1.5 mg/kg caused no harm when injected intra-venously.

phosphorylated ERK 1, 2 = experiment: Western blot for phosphorylated ERK 1, 2 in primary cells; type: cell-based, human; settings: 50 μM, primary cell lysates
Protocol: (§2) Toxicological studies of DB2121 in human cells were also undertaken. Primary human neonatal foreskin epithelial cells were used to examine DB2121 toxicity, using a method as described in Min et al. 2004. Nat Biotechnol 22:717-23, the contents of which are incorporated herein by reference. Briefly, when the cells were in log phase, (A) 50 μM DB2121, B) 50 μM Histatin H5, (C) 50 μM ketoconazole, or (D) DMSO was added to the culture medium. At 18 and 36 hours following addition of compound, the foreskin epithelial cells were imaged using phase contract microscopy at 20× magnification. Immediately following the image analysis, proteins were extracted, separated on SDS-PAGE gels, Western blotted, and probed for phosphorylated and non-phosphorylated ERK 1, 2 to monitor cell spreading/migration and/or proliferation of the foreskin keratinocytes. The experiments was repeated three times.
It was then investigated whether or not these phenotypes were reflected at the molecular level. The primary cells were lysed and monitored for a marker of proliferation namely, phosphorylated ERK 1, 2.

[2] = tested on: Primary human neonatal foreskin epithelial cells; experiment: Toxicity in primary cells, phase contrast morphology; type: cell-based
Protocol: as §2

[3] = Stability in human saliva in vitro by mass spectrometry; type: in vitro ADME; settings: 1 uM, 37° C.
Protocol: DB2121 cyclic analogue was determined to be stable in vitro in human saliva for at least 72 hours as determined by mass spectrometry. The cyclic analogue was incubated in human saliva at a concentration of 1 uM and at a temperature of 37° C. in vitro. At various time points from 0 to 72 hours, 1.0 ul aliquots were taken and injected directly into a Micromass Quattro Micro mass spectrometer. Data was collected for a total of 3 minutes. The data was then processed using Mass Lynx 4.0 Analysis software.
The expected average mass of the cyclic histatin analogue in its active form is expected to be 2557.93. […] The peaks within an acceptable error of approximately 1 mass unit corresponding to cyclic histatin analogue were 2556.95 at 0 hours, 2557.65 at 24 hours, and 2557.10 at 72 hours incubation.

[4] = Tolerability in mice, intra-peritoneal injection; type: in vivo
Protocol: as §1

[5] = tested on: primary human foreskin epithelial cell culture; experiment: Viable cell number (trypan exclusion) in primary cell culture; type: cell-based; settings: various concentrations, 0, 36 and 72 hours; vs 50 μM ketoconazole; FIG. 3
Protocol: To determine range of non-toxic concentrations of DB2121, various concentrations of DB2121, 50 μM ketoconazole or DMSO as a control were separately added to primary human foreskin epithelial cell culture. At 0, 36 and 72 hours after addition, the epithelial cells were titrated off the culture plate and the viable cell number was determined. The experiment was performed in triplicate. At 72 hours, the foreskin epithelial cells exposed to the various compounds were imaged at 20× magnification using phase contrast microscopy. For cell counting, the epithelial cells were stained with trypan exclusion stain to monitor cell viability.

N=C(N)NCCC[C@H](NC(=O)[C@H](Cc1c[nH]cn1)NC(=O)[C@@H]1CSSC[C@H](NC(=O)[C@H](Cc2c[nH]cn2)NC(=O)[C@H](Cc2c[nH]cn2)NC(=O)[C@@H](N)CCCNC(=N)N)C(=O)N[C@@H](Cc2ccc(O)cc2)C(=O)N[C@@H](CCCCN)C(=O)N[C@@H](CCCNC(=N)N)C(=O)N[C@@H](CCCCN)C(=O)N[C@@H](Cc2ccccc2)C(=O)N[C@@H](Cc2c[nH]cn2)C(=O)N[C@@H](CCC(=O)O)C(=O)N[C@@H](CCCCN)C(=O)N[C@@H](Cc2c[nH]cn2)C(=O)N[C@@H](Cc2c[nH]cn2)C(=O)N1)C(=O)NCC(=O)N[C@@H](Cc1ccc(O)cc1)C(=O)O [DB2121, N-RHHCYKRKFHEKHHCHRGY-C] (H-RHHCYKRKFHEKHHCHRGY-OH; disulfide 4-15; N-terminus and C-terminus assumed)
concentration (dose) that caused no harm [1]: ≤ 1.5 mg/kg | ERK 1, 2 activation (phosphorylated ERK 1, 2) vs control (phosphorylated ERK 1, 2): not suppressed | toxicity to human primary cells ([2]; working concentrations of 50 μM, conclusion from morphology and ERK studies): non-toxic | time stable in human saliva [3]: at least 72 hours | concentration (dose) mice were able to withstand [4]: 15 mg/kg | toxicity in primary cultured cells (viable cell number) [5]: minimal toxicity

CC(=O)N1CCN(c2ccc(OCC3COC(Cn4ccnc4)(c4ccc(Cl)cc4Cl)O3)cc2)CC1 (centres unmarked) [ketoconazole, Ketoconazole, reference compound]
ERK 1, 2 activation (phosphorylated ERK 1, 2) vs control (phosphorylated ERK 1, 2): Significant inhibition of ERK 1, 2 activation | cell morphology ([2]; 50 μM, 18 and 36 hours, phase contrast 20×): morphologically normal except when treated with ketoconazole
